Data: patent US20060106026A1, “4-(4-methylpiperazin-1-ylmethyl)-n-[4-pyridin-3-yl)pyrimidin-2-ylamino)phenyl]-benzamide for treating anaplastic thyroid cancer” (priority 2002, published 2006)
“And” between values parts separate entries of the source, which are not always exact repeats. Identical values can stand only once. Like-named read-outs stand apart in the source and are kept apart here.

How the values were obtained:
1F3 cell line = details: IF3 cells, 10 μM of SALT I (data not shown)
FRO [1] = details: 10 μM of SALT I, 48 hours
Description: (§1) For flow cytometry analysis, cells were fixed with 70% ethanol and wash with PBS. After pre-incubation with RNase A (0.1 mg per ml) at room temperature, cells were stained with PI (25 μg per ml). Fluorescence was measured by using FACScan flow cytometer (Becton Dickinson, Mountain View, Calif.). This experiment was performed at least three times.

KTC-1 [2] = details: KTC-1, 10 μM of SALT I, 48 hours
Description: as §1

[3] = tested on: thyroid cancer cell lines
Description: as §1

[4] = tested on: cell cycle regulatory proteins (p21cip1, p27kip1, cyclin A, B1, CDC2, cyclin D3)
Source text: After transfer onto nitrocellulose membranes (Pall Corporation, Ann Arbor, Mich., USA), blots were probed with the appropriate antibodies. β-actin was used as a loading control. The antibodies used were: anti-p21waf1 (Ab-1, Calbiochem, Darmstardt, Germany), anti-p27-8, Santa Cruz Biotechnology, Santa Cruz, Calif., USA), anti-cyclin A (C88020, BD Biosciences, Boston, Mass., USA), anti-cyclin B1 (C23420, BD Biosciences), anti-CDK1/Cdc2 (C12720, BD Biosciences), anti-cyclin D3 (C28620, BD Biosciences), anti-Phospho-c-ABL (Tyr245, Cell Signaling Technology, Beverly, Mass., USA), anti-c-Abl (24-11, Santa Cruz Biotechnology), anti-c-KIT (C-14, Santa Cruz Biotechnology), anti-PDGFRα (C-20, Santa Cruz Biotechnology), anti-PDGFRβ (P-20, Santa Cruz Biotechnology), anti-ERK1/2 (Cell Signalling Technology), anti-p-ERK (Cell Signalling Technology) and anti-Actin (C-11, Santa Cruz Biotechnology). Detection was performed with an enhanced chemiluminescence kit (ECL, Amersham Life Sciences, Buckinghamshire, UK). Immunoblotting experiments were performed at least twice. […] Since p53 status is likely to have some effect on the level of c-Abl protein, the expression level of c-Abl in 1F3 cells was also measured. […] The cyclin-dependent kinase (CDK) inhibitors, p21^cip1 and p27^kip1, can block CDK activity in the S to G2 as well as in the G1 to S phase transition of the cell cycle. […] The activity of CDKs is dependent, in part, on the relative abundance of cyclin subunits and the presence of CDK inhibitors. Among the cyclins and CDKs, cyclin A, B, and CDC2 are involved in the progression from G2 to M phase.

ERK1/2 = tested on: ERK1/2
Description: Abl was immunoprecipitated from cell lysates using the indicated antibody. In vitro kinase assay was performed as described previously (Dorey et al., Oncogene, 2000, […]:8075-84). Radiolabelled GST-Crk was quantified using a PhosphorImager (Molecular Dynamics, Inc., Sunnyvale, Calif., USA). […] Stimulation was with 20% FCS for 8 minutes, cell lysates were collected and subjected to SDS-PAGE and Western blotting carried out using antibodies against ERK1/2 and the phosphorylated form of ERK1/2. […] A common response to extracellular signals such as growth factors is the activation of the mitogen-activated protein (MAP) kinase cascade.

FRO cells = details: single daily administration of 50 mg/kg over 14 consecutive days, i.p.
Description: Mouse xenograft model. All mice were maintained in the Nagasaki University (Nagasaki, Japan) animal facility and all animal experiments described in this study were conducted in accordance with the principles and procedures outlined in the Guide for the Care and Use of Laboratory Animals of the Nagasaki University School of Medicine. Five million FRO cells suspended in RPMI 1640 were injected s.c. into the flanks of 8-week-old female BalB/c nu/nu mice (Charles-River Japan, Tokyo, Japan). Tumor sizes were measured every other day with calipers and tumor volumes were calculated according to the formula: a^2×b×0.4 where a is the smallest diameter and b is the diameter perpendicular to a. […] Mice in the control group received injections of pure water. The body weight feeding behavior and motor activity of each animal were monitored as indicators of general health.
Statistical analysis: Data are presented as mean ±SD unless otherwise specified. Student's t-test and Mann Whitney U test were used for comparison between two groups for parametric and nonparametric data, respectively. A p value <0.05 is considered statistically significant.

[5] = tested on: Refractory Progressive Thyroid Carcinoma; details: SALT I without any other therapy; rapid growth and invasion during the previous year
Description: This clinical study is part of the Phase I/II clinical study which is exploratory in nature.
When any mild adverse effect occurs, the dose is decreased to 200 mg once daily depending on the degree of the adverse effect. […] In principle, where the tumor size is reduced by half, the dose is increased up to 800 mg/day and continued for a maximum of six months. […] No concomitant use of an anticancer drug is permitted in principle. Drugs that relieve other conditions or symptoms may be used concomitantly with caution exercised for their adverse effects.

FRO [6] = experiment: Cell growth assay, experiment 1 (cell count kit 48 h; growth curve 5 days); details: for cell number quantified with a cell count kit (Wako), mean: 48 hour-treatment, no SALT I: 1.677
ARO = experiment: as above; details: for cell number quantified with a cell count kit (Wako), mean: 48 hour-treatment, no SALT I: 0.959
KTC-1 [7] = experiment: as above; details: for cell number quantified with a cell count kit (Wako), mean: 48 hour-treatment, no SALT I: 0.413

## CS(=O)(=O)O.Cc1ccc(NC(=O)c2ccc(CN3CCN(C)CC3)cc2)cc1Nc1nccc(-c2cccnc2)n1 [SALT I]
1F3 cell line
  cell growth curve on a 5 day period: do not change the cell growth
FRO [1]
  effect on cell cycle (arrest): S-phase arrest
FRO [1]; DMSO 24.95
  percentage of cells in G2-M phase: 15% and 14.98%
FRO [1]; DMSO 32.16
  percentage of cells in G1 phase: 30.91%
FRO [1]; DMSO 43.26
  percentage of cells in S phase: 54% and 54.11%
KTC-1 [2]
  effect on cell cycle (G2/M or S-phase changes): No such changes were observed
KTC-1 [2]; DMSO 7.68
  percentage of cells in S phase: 6.53%
KTC-1 [2]; DMSO 20.11
  percentage of cells in G2-M phase: 18.7%
KTC-1 [2]; DMSO 72.2
  percentage of cells in G1 phase: 74.77%
[3]; after 48 hours of treatment (data not shown)
  DNA fragmentation in the DNA ladder assay: no DNA fragmentation was detected
[3]; after 48 hours of treatment, in any cell line
  apoptotic fraction (sub-G1): did not significantly increase
[4]
  Expression of p2^cip1: markedly increased
  Expression of p27^kip1: increased
[4]; ARO and FRO cell lines, 10 μM of SALT I, 24 hours
  levels of cyclin A, B1 and CDC2: reduced
[4]; ARO cells, 10 μM of SALT I, 24 hours
  level of cyclin D3: reduced
[4]; ARO, KTC-1 and 1F3 cells, 10 μM of SALT I
  Expression of p2^cip1: did not change
[4]; KTC-1 and 1F3, 10 μM of SALT I, 24 hours
  levels of cyclin A, B1, CDC2 and cyclin D3: had no effect
ERK1/2
  phosphorylation of ERK1/2 in response to serum stimulation: had no effect on its phosphorylation
ERK1/2; ARO and FRO, 10 μM SALT I for two hours, 20% FCS for 8 minutes
  level of p-ERK1/2: did not affect
FRO cells
  anti-tumor effect: strong anti-tumor effect
[5]
  tumor growth in first patient (preliminary results): stopped their growth for 3 months
FRO [6]; FRO (undetectable p53), lower than 50 μM, 48 h
  growth suppression, dose dependence: show growth suppression in SALT I dose dependent manner
FRO [6]; FRO, 10 μM of SALT I, compared to control cells
  cell growth curve on a 5 day period: time-dependent reduction of cell growth
FRO [6]; FRO, 50 μM of SALT I, 48 h
  cell death: died
FRO [6]; FRO, SALT I 1 μM
  cell number quantified with a cell count kit (Wako), mean: 1.414
FRO [6]; FRO, SALT I 10 μM
  cell number quantified with a cell count kit (Wako), mean: 1.192
FRO [6]; FRO, SALT I 50 μM
  cell number quantified with a cell count kit (Wako), mean: 0.228
ARO; ARO (mutant p53), lower than 50 μM, 48 h
  growth suppression, dose dependence: show growth suppression in SALT I dose dependent manner
ARO; ARO, 10 μM of SALT I, compared to control cells
  cell growth curve on a 5 day period: time-dependent reduction of cell growth
ARO; ARO, 50 μM of SALT I, 48 h
  cell death: died
ARO; ARO, SALT I 1 μM
  cell number quantified with a cell count kit (Wako), mean: 0.785
ARO; ARO, SALT I 10 μM
  cell number quantified with a cell count kit (Wako), mean: 0.539
ARO; ARO, SALT I 50 μM
  cell number quantified with a cell count kit (Wako), mean: 0.096
KTC-1 [7]; KTC-1 (wild type p53), lower than 50 μM, 48 h
  growth suppression, dose dependence: do not
KTC-1 [7]; KTC-1, 10 μM of SALT I (data not shown)
  cell growth curve on a 5 day period: do not change the cell growth
KTC-1 [7]; KTC-1, 50 μM of SALT I, 48 h
  cell death: died
KTC-1 [7]; KTC-1, SALT I 1 μM
  cell number quantified with a cell count kit (Wako), mean: 0.403
KTC-1 [7]; KTC-1, SALT I 10 μM
  cell number quantified with a cell count kit (Wako), mean: 0.379
KTC-1 [7]; KTC-1, SALT I 50 μM
  cell number quantified with a cell count kit (Wako), mean: 0.064
